From PubChem BioAssay AID743267 (Broad Institute, 2014)

Each molecule was assayed on human bronchial epithelial cells, CFTR corrector, plate reader (assay: CFTR ΔF508 corrector activity in bronchial cells, dose response, human bronchial epithelial cells, plate reader, cherry-pick, two tests (AID 743267)). Conditions: measured here: test 1 replicate run.

Compound | AC50 [µM]
Cc1ccc(-c2ccc3c(c2)O[C@@H](CN(C)Cc2ccccn2)[C@H](C)CN([C@H](C)CO)S3(=O)=O)cc1 | 13.6
COc1ccc(S(=O)(=O)N2CC[C@@H]3[C@@H](CO)Nc4ccc(-c5ccc(C#N)cc5)cc4[C@@H]32)cc1 | 1.57
COc1ccc(-c2ccc3c(c2)[C@H]2[C@H](CCN2S(=O)(=O)c2ccc(OC)cc2)[C@H](CO)N3C)cc1 | 1.17
O=C1CN(S(=O)(=O)Cc2ccccc2)C[C@@H]2[C@@H](c3ccc(C#Cc4cccc(F)c4)cc3)[C@H](CO)N12 | 16
COc1ccc(S(=O)(=O)Nc2ccc3c(c2)C(=O)N([C@@H](C)CO)C[C@@H](C)[C@H](CN(C)Cc2ccc(Oc4ccccc4)cc2)O3)cc1 | 0.13
COc1ccc(NC(=O)N(C)C[C@@H]2Oc3cc(C#CCC(C)C)ccc3S(=O)(=O)N([C@H](C)CO)C[C@@H]2C)cc1 | 16
COc1ccc(S(=O)(=O)Nc2ccc3c(c2)C(=O)N([C@H](C)CO)C[C@@H](C)[C@@H](CN(C)Cc2ccc(Cl)c(Cl)c2)O3)cc1 | 4.82
COc1ccccc1S(=O)(=O)N1CC[C@@H]2[C@@H](CO)N(C)c3ccc(-c4ccc(F)cc4)cc3[C@@H]21 | 15
Cc1ccc(-c2ccc3c(c2)O[C@H](CN(C)Cc2ccccn2)[C@@H](C)CN([C@H](C)CO)S3(=O)=O)cc1 | 5.08

Same assay, conditions: measured here: test 2 replicate run

Compound | AC50 [µM]
Cn1cccc1/C=C1\SC(=Nc2cccc(O)c2)NC1=O | 13.5
O=C1/C(=C\c2cc(Cl)c(O)c(Cl)c2)SC(=S)N1Cc1ccccc1 | 3.15
Cc1ccc(N2C(=O)c3cccc4c([N+](=O)[O-])ccc(c34)C2=O)c2cccnc12 | 18.8
Cc1c(C(=O)N/N=C/c2c(O)ccc3ccccc23)nnn1-c1nonc1N | 0.462
COc1cc(C(=O)Nc2ccccc2C(=O)Nc2ccccn2)cc(OC)c1OC | 4.59
Cc1ccc(S(=O)(=O)NCc2ccccc2)cc1C(=O)N1CC(C)CC(C)C1 (centres undefined) | > 50
COc1cc(OC)cc(C(=O)N2CC(=O)Nc3ccccc32)c1 | 2.1
C=C1SC(Nc2c(C)cc(C)cc2C)=NC12CCCCC2 | 5.37
Cc1cnc(NC(=O)c2ccc3c(c2)OCCO3)s1 | 4.71
COc1ccc(N2CCc3c(C)nc4c(OC)cc(OC)cc4c32)cc1 | > 50
COc1cc(OC)cc(-c2cc3ccc(OC)cc3cn2)c1 | 43.6
Cc1cccc(N2CCN(C(=O)c3ccc4[nH]c(C)c(C)c4c3)CC2)c1C | 1.85
COc1cc(NC(=O)COC(=O)c2n[nH]c3ccccc23)c(C)cc1[N+](=O)[O-] | 36.6
O=C(N/N=C/c1cccs1)c1cccc(NC(=O)c2ccccc2Cl)c1 | 0.985
CCOP(=O)(C#Cc1ccccc1)C(O)c1ccc(Br)cc1 (centres undefined) | > 50
c1ccc(CCN(Cc2ccccc2)Cc2nc(C3CC3)no2)cc1 | 24.9
Cc1ccc2[nH]c(C(=O)N/N=C/c3ccccc3O)c(C)c2c1 | 1.31
Cc1nc(C)c(C(=O)NN=Cc2ccc(N(CCCl)CCCl)cc2)s1 | > 50
Cc1cccc(N2CCN(Cc3cn(C)nc3-c3ccccc3F)CC2)n1 | 2.43
CCc1c(C)nc2ncnn2c1NCCc1ccc(OC)cc1 | 34.6
NS(=O)(=O)c1cc(C2(O)NC(=O)c3ccccc32)ccc1Cl (centres undefined) | > 50
NS(=O)(=O)c1ccc(NC(=O)c2cccc3cc4ccccc4nc23)cc1 | 4.75
O=c1[nH]c(/C=C/c2ccccc2F)nc2ccccc12 | 2.69
COc1ccc(-c2csc(NC(=S)NC(=O)/C=C/c3ccco3)n2)cc1OC | 2.19

Compound | AC50 [µM]
CC(C)n1cc(/C=C/c2cc[n+](C)cc2)c2ccccc21 | 27.2
Nc1c2ccccc2nc2ccccc12 | 2.62
C/C(=N\NC(=O)c1c(Cl)c(C)nn1C)c1ccc(NC(=O)C2CCC2)cc1 | 1.1
COc1ccc(-c2cnc3c(NC=O)cc(-c4ccccc4)cn23)cc1OC | 0.793
COc1cccc(/C=N/NC(=O)C(=O)Nc2ccccc2OC(F)(F)C(F)F)c1O | 9.39
CC1=C/C(=C\C=C(C#N)C#N)N(C)c2ccccc21 | 12.9
CN(Cc1ccco1)c1ncnc2ccc(-c3ccc4c(ccn4C)c3)cc12 | 1.77
O=C(NN=C1CCCC1)c1[nH]c2ccc(Cl)cc2c1-c1ccccc1 | 6.72
O=C1OCC2=C1C(c1ccc3c(c1)OCO3)c1cc3c(cc1O2)OCO3 (centres undefined) | 2.12
Cn1cc(C(=O)OCC2CCN(CCNS(C)(=O)=O)CC2)c2ccccc21 | > 50
COc1ccc2c(c1)/C(=C/c1cc(OC)c(OC)c(OC)c1)C(=O)N2 | 2.04
CCOC(=O)c1sc(Nc2nc(C)cc(C)n2)nc1C | 11.5
COc1ccc(Nc2nc3cc(-c4sccc4C)sc3c(=O)n2C)cc1OC | 2.15
Cc1ccc(C)c(CSc2nc3[nH]ncc3c(=O)[nH]2)c1 | 2.57
COc1ccccc1Nc1nc(-c2sc(NC(=O)C(C)(C)C)nc2C)cs1 | 3.84
Cc1cccc(N(C)S(=O)(=O)c2ccc(-c3cc(C)no3)s2)c1 | 0.738
CC(=O)Nc1ccc(-c2csc(NC(=O)CN3C(=O)NC4(CCCC4)C3=O)n2)cc1 | > 50
CNC(=O)C1CC(=O)N(c2ccc(OCC(=O)Nc3ccccc3)cc2)C1 (centres undefined) | > 50
OC[C@@H]1CN(Cc2ccc(-c3ccccc3)cc2)C[C@H](n2cnc3c(NC4CC4)ncnc32)O1 | > 50
COCCCN=C1NN=C(c2cc(C)n(Cc3ccccc3Cl)c2C)CS1 | 3.3
COc1ccc(-c2ccnc(-c3ccc(O)cc3)n2)cc1 | 1.43
O=c1c2ccccc2oc2cc(-c3ccc4[nH]ccc4c3)ccc12 | 1.94
COc1ccc(/C=N/NC(=O)c2cccnc2)cc1CSc1ccccn1 | 28.2
O=C(Cc1ccc(Br)cc1)NCc1ccccc1 | 4.85

Compound | AC50 [µM]
Cc1ccc(Nc2nc(-c3sc(C)nc3C)cs2)cc1 | 0.812
COc1ccc2c(c1OC)OCC2C (centres undefined) | 30.2
Cc1ccc(C)c(C2NC(=O)c3ccccc3N2)c1 (centres undefined) | 2.91
COc1cc(OC)c2c(-c3cccc(-c4cccc(N)c4)c3)cc(=O)oc2c1 | 3.43
CC1(C(=O)NCc2cccs2)Cc2c(-c3ccc4c(c3)OCO4)ccnc2O1 (centres undefined) | 2.69
Cc1cc(C(=O)N/N=C/c2ccc([N+](=O)[O-])cc2)c2ccccc2n1 | 3.96
CC(=O)Nc1cccc(-c2ccnc3c2CC(C)(C(=O)Nc2ccc4c(c2)OCO4)O3)c1 (centres undefined) | 0.973
CCCn1c(CN2CCN(C(=O)OCC)CC2)nc2cc(NC(=O)CC)ccc21 | 4.34
C/C(=N\Nc1ncnc2sc(C)c(C)c12)c1ccccn1 | 0.589
COc1cc(-c2noc(C)c2C#Cc2ccccn2)cc(OC)c1OC | 0.747
CCN1CCCC(OC(=O)c2cc(-c3ccccc3Cl)nc3ccccc23)C1 (centres undefined) | 43.9
CC(=O)Nc1cccc(-c2ccnc3c2CC(C)(C(=O)NCc2cccs2)O3)c1 (centres undefined) | 3.3
N#CC1c2ccccc2-c2ccccc2N1C(=O)c1ccccc1 (centres undefined) | 4.85
COc1cc(NC(=O)c2csc(N)n2)cc(C(=O)Nc2cccc(C(F)(F)F)c2)c1 | 16
C#C[C@]1(O)CC[C@H]2[C@@H]3CCc4cc(OC5CCCC5)ccc4[C@H]3CC[C@@]21C | 3.31
Cc1ccc(C2(C)NC(=O)N(CC(=O)Nc3nc(-c4ccccn4)cs3)C2=O)cc1 (centres undefined) | 4.23
CC(=O)Nc1ccc(Nc2c3ccccc3nc3ccccc23)cc1 | 4.6
CCN(CC)CCC(=O)Nc1cccc2c1C(=O)c1ccccc1C2=O | 2.98
Cc1noc(C)c1COc1ccc(C(=O)NNC(=O)c2ccccc2)cc1 | 6.4
COc1ccc(CNS(=O)(=O)c2cc(-c3cc(C)no3)ccc2C(C)C)cc1 | 2.16
COc1cccc(-c2cc3nc(-c4ccccc4)cc(=O)n3[nH]2)c1 | 2.35
CCOc1ccc(C(=O)COC(=O)Cc2n[nH]c(=O)c3ccccc23)cc1 | 2.53
CCN(CC)CCn1c2ccccc2c2nc3ccccc3nc21 | 11.3
COc1ccc(S(=O)(=O)NCc2ccccn2)cc1NC(=O)c1ccccc1F | 1.32

Compound | AC50 [µM]
C[C@@H]1O[C@@H](O[C@@H]2C=C3CC[C@@H]4C(CC[C@]5(C)[C@@H](c6ccc(=O)oc6)CC[C@]45O)[C@@]3(C)CC2)[C@H](O)[C@H](O)[C@H]1O (some centres undefined) | 1.42
CC(=O)c1ccc(Nc2cc(C)nc3c(C)cc(C)cc23)cc1 | 3.11
O=C(NCCOc1ccccc1F)c1cc([N+](=O)[O-])ccc1N1CCOCC1 | 5.95
COCOc1cccc(CN2CCC2(C)C(=O)Nc2ccc(C)c(O)c2)c1 (centres undefined) | > 50
COc1ccc(-c2ccc3oc(-c4ccc(OC)cc4)c(C#CCO)c3c2)cc1 | > 50
NS(=O)(=O)c1ccc(S(=O)(=O)N(CCc2ccccc2)Cc2ccccn2)cc1 | < 0.0235
O=C(NCCCN1CCOCC1)c1sc2cc(Cl)ccc2c1Cl | 1.76
O=C(Nc1cccc(C2=NCCN2)c1)Nc1cccc(C2=NCCN2)c1 | 20.7
O=C1/C(=C\c2ccc(O)cc2)SC(=S)N1Cc1ccccc1 | 20.5
CCOC1=C2CN(S(=O)(=O)c3ccc(C)cc3)CC[C@@H]2N(S(=O)(=O)c2ccc(C)cc2)[C@H](c2ccccc2)C1 | 4.47
CCCC(=O)NC1=C(Cl)C(=O)c2ccccc2C1=O | 11.8
COc1ccccc1C1CC(=O)Nc2cc3c(cc21)OCCO3 (centres undefined) | 1.96
O=C(OCc1ccc(Br)cc1)c1cc([N+](=O)[O-])ccc1N1CCOCC1 | 0.662
COC(=O)c1ccc(S(=O)(=O)N2CCc3ccccc32)cc1 | 19.1
COc1ccc(C(=O)c2cc([N+](=O)[O-])ccc2N2CCN(C)CC2)cc1 | 3.74
CC(=O)O[C@H]1C(=O)[C@@]2(C)C([C@H](OC(=O)c3ccccc3)[C@]3(O)C[C@H](OC(=O)[C@H](O)[C@@H](NC(=O)c4ccccc4)c4ccccc4)C(C)=C1C3(C)C)[C@]1(OC(C)=O)CO[C@@H]1C[C@H]2O (some centres undefined) | 5.6
c1ccc(CCNc2nc(-c3ccccn3)nc3ccccc23)cc1 | 2.77
COc1ccc2[nH]c(C(=O)N/N=C/c3ccc(OC)c(O)c3)cc2c1 | 0.85
Cc1cc(C(=O)NNC(=O)c2ccc(Cl)c(S(N)(=O)=O)c2)c(C)o1 | 6.93
COc1ccc(N(C)S(=O)(=O)c2cccc(C(=O)NCC3CCCCC3)c2)cc1 | 48.2
COC(=O)c1ccccc1-c1c2ccc(=N)cc-2oc2cc(N)ccc12 | 0.181
COc1cc(/C=C2/SC(=S)N(Cc3ccccc3)C2=O)cc(Cl)c1O | 12.1
COc1ccc(S(=O)(=O)Cc2ccc(C(=O)N3CCN(c4cccc(C)c4)C(C)C3)o2)cc1 (centres undefined) | 3.68
